Consider three molecules from patent EP0271023A2, “Use of dihydrophenylamino-acid derivatives and medicines containing them for immunomodulation and cytostasis” (GÖDECKE AKTIENGESELLSCHAFT, priority 1986, dated 1988).

Data set [1] concerns allogene Hauttransplantate. It is filed as in vivo, Ratte. The settings on record: for Toxizität / Unverträglichkeit der behandelten Tiere: skin graft model, Tab. I, Azathioprin in äquipotenter Dosis; for Wirksamkeit im Hauttransplantat-Modell (immunsuppressive Aktivität): qualitative statement. From the text:
Die mit einer Stanze gewonnenen und vom Panniculus carnosus (einer Fett- und Muskelschicht) präparativ befreiten Transplantate werden in ebenfalls ausgestanzte Transplantatbetten des Empfängertiers plaziert. Die Transplantate werden mit speziellem Verbandmaterial bedeckt und mit einer Bandage fixiert. Endpunkt der Untersuchung ist der Tag, an dem 50 % der Tiere beide Transplantate vollständig abgestoßen haben. Die immunsuppressive Aktivität eines Wirkstoffs wird anhand der Verlängerung des normalen Transplantatüberlebens (Tage) der nicht behandelten Kontrolltiere bestimmt.

A further data set has as its system boviner Endothelzellen. Put plainly: In vitro migration/motility of endothelial cells under angiogenic stimulus (modified Boyden chamber). It counts as cell-based, bovine. To be noted: for Anzahl der migrierten Zellen Kollagen-Fibronektin-Filter / Anzahl der migrierten Zellen Kollagen-Filter: Präinkubation + (Gangliosid-Mischung), innerhalb 8 Stunden, Mittelwert (± Standardabweichung) von 3 Versuchen. From the text: Es wurde daher eine Untersuchung mit Cefradin als Modellsubstanz auf eine die Gefäßbildung hemmende Aktivität in einem hierzu geeigneten in vitro Model durchgeführt (s. Tab. II). In diesem Test wird der Einfluß auf die Motilität boviner Endothelzellen unter angiogenem (gefäßbildendem) Stimulus bestimmt.

The conditions of data set [2]: cited from earlier work.

On to `Cn1cnc([N+](=O)[O-])c1Sc1ncnc2nc[nH]c12` [Azathioprin, 6[(1-Methylnitroimidazol-5-yl)thio]purin], for which the “Toxizität / Unverträglichkeit der behandelten Tiere” value in data set [1] is on record as “ausgeprägt toxisch”.
`CC1=C(C(=O)O)N2C(=O)[C@@H](NC(=O)[C@H](N)c3ccc(O)cc3)[C@H]2SC1` [Cefadroxil]: in data set [1], the “Wirksamkeit im Hauttransplantat-Modell (immunsuppressive Aktivität)” value is reported as “Unwirksamkeit”.
For `CC1=C(C(=O)O)N2C(=O)C(NC(=O)C(N)C3=CCC=CC3)C2SC1` (stereo not drawn) [Cefradin], the figures for the “Anzahl der migrierten Zellen Kollagen-Fibronektin-Filter” value in the data set on boviner Endothelzellen (Cefradin 10 µg/ml Medium), with boviner Endothelzellen (Cefradin 100 µg/ml Medium) and with boviner Endothelzellen (Cefradin 1000 µg/ml Medium) were 306 ± 74, 256 ± 24 and 51 ± 6, respectively. The “Anzahl der migrierten Zellen Kollagen-Filter” value with boviner Endothelzellen (Cefradin 10 µg/ml Medium) was 173 ± 29; in the data set with boviner Endothelzellen (Cefradin 100 µg/ml Medium), 104 ± 3; in the data set on boviner Endothelzellen (Cefradin 1000 µg/ml Medium) it was 23 ± 8. In addition, the “Aktivität auf die Motilität boviner Endothelzellen” value in the data set on boviner Endothelzellen (concentration range corresponding to the low, already immunosuppressive in vivo doses) is “nur geringfügige, wenn auch dosisabhängige Aktivität”. For the same molecule, the “Inhibition der Endothelmotilität” value in the data set on boviner Endothelzellen (in hoher, bereits zytotoxischer Konzentration) is reported as “komplette Inhibition”. Further, the Nierentoxizität entry in data set [2] (im Tierversuch, länger dauernde hochdosierte Anwendung) is recorded as “keine Nierentoxizität”. The “leukopenische Wirkung” value in data set [2] (in vivo) is listed as “nicht leukopenisch”. Further, the “Ausbildung der Gefäßverbindung zwischen Transplantatbett und Transplantat” value in data set [1] (höchste Cefradin Dosis, in controls established by about the 5th postoperative day) is recorded as “unterdrückte”. For the same molecule, the “Wirksamkeit im Hauttransplantat-Modell (immunsuppressive Aktivität)” value in data set [1] is reported as “außerordentlich wirksam”. Besides, in data set [1], the “Toxizität / Unverträglichkeit der behandelten Tiere” value was “keinerlei Unverträglichkeit”.
